Results from article PMC7999182, “Interaction of Remdesivir with Clinically Relevant Hepatic Drug Uptake Transporters” (Pharmaceutics, 2021).
Numbering of substitutions follows the chain as printed.

What was measured:
OATP1B1 = target: T1, OATP1B1 (Homo sapiens, UniProt Q9Y6L6); experiment: Remdesivir uptake into HEK cells stably expressing OATP1B1 (*1a) vs vector control; type: in vitro ADME; conditions: 5 µM remdesivir, 10 min
T1 construct: expressed in transfected cells
T1 sequence (Q9Y6L6 1-691): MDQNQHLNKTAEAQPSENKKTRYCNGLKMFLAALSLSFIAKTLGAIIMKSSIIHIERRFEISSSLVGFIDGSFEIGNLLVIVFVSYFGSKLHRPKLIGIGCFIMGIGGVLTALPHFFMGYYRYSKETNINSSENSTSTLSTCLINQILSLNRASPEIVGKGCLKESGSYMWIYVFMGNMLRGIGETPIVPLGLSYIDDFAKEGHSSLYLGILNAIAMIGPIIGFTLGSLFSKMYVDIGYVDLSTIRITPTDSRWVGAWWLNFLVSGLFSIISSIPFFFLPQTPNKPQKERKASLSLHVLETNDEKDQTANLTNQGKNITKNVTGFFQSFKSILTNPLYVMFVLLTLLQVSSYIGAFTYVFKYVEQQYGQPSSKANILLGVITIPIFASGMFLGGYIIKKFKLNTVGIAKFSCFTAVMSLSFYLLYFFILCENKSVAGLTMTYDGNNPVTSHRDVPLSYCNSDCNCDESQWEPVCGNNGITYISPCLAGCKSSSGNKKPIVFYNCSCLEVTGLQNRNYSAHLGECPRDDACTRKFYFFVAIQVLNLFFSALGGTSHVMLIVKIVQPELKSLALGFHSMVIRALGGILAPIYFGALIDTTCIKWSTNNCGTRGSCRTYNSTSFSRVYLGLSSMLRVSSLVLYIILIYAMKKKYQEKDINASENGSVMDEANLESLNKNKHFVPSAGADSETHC
Excerpt: (§1) Generation, cultivation and characterization of human embryonic kidney (HEK) cells stably expressing OATP1B1 refseq (=OATP1B1*1a), OATP1B1*1b, OATP1B1*5 and OATP1B1*15 [18], OATP1B3 [19], OATP2B1 [13] and OCT1 [20] have been described previously. OATP1B1 cells were cultivated in minimal essential medium (Life Technologies, Paisley, UK) and OATP1B3, OATP2B1 and OCT1 cells were cultivated in Dulbecco’s modified Eagle medium (Sigma, Darmstadt, Germany). Cultivation media were supplemented with 10% fetal calf serum, 100 U/mL penicillin and 100 µg/mL streptomycin. Cells were grown at 37 °C and 5% CO2. Functionality of the cells was confirmed by measuring uptake of prototypic substrates (see Section 2.3 and supplementary material).
(§2) Uptake assays were conducted at 37 °C according to previously described methods. For this, cells were seeded in 24-well plates (320,000 cells/well) and cultured for 2 days. Cells were then incubated for a further 24 h in culture medium with 5 mM butyrate (OATP1B3, OATP2B1, OCT1) or 10 mM butyrate (OATP1B1) to increase protein levels of recombinant transporters. Before the uptake experiments, cells were washed with the respective pre-warmed (37 °C) uptake buffer. The compositions of the uptake buffers were as follows: for OATP1B1, OATP1B3, OATP2B1: 142 mM NaCl, 12.5 mM hydroxyethylpiperazine ethanesulfonic acid, 5 mM KCl, 1 mM KH2PO4, 1.5 mM CaCl2, 1.2 mM MgSO4, 5 mM glucose, pH 7.3; for OCT1: 145 mM NaCl, 5 mM hydroxyethylpiperazine ethanesulfonic acid, 3 mM KCl, 1 mM CaCl2, 0.5 mM MgCl2, 5 mM glucose, pH 7.4. Uptake was initiated by replacing this solution with uptake buffer containing different concentrations of remdesivir as indicated. […]
(§3) Remdesivir was determined by UHPLC-MS-MS analysis on an Agilent 1290 infinity UHPLC system coupled to an Agilent 6495B triple quadrupole mass spectrometer (Agilent, Waldbronn, Germany) similar to a recently published method. […]

OATP1B1*15 = target: T2, OATP1B1*15 (Homo sapiens, UniProt Q9Y6L6, N130D/V174A); experiment: Remdesivir uptake into HEK cells stably expressing OATP1B1*15 vs vector control; type: in vitro ADME; conditions: 10 min
T2 construct: expressed in transfected cells
T2 sequence (Q9Y6L6 1-691 N130D/V174A): T1 sequence (Q9Y6L6 1-691) with N130D, V174A
Excerpt: as §1, §2, §3

CCC(CC)COC(=O)[C@H](C)N[P@](=O)(OC[C@H]1O[C@@](C#N)(c2ccc3c(N)ncnn23)[C@H](O)[C@@H]1O)Oc1ccccc1 [Remdesivir]
Significance of uptake vs control cells (OATP1B1): Statistically significant uptake | Remdesivir uptake ratio (OATP1B1; transporter-expressing vs control HEK cells): 1.3 | Accumulation vs vector-transfected control cells (OATP1B1; OATP1B1*1a cells): moderately higher | Uptake vs vector-transfected control cells (OATP1B1*15; 0.5 µM remdesivir): significantly lower uptake | Accumulation vs vector-transfected control cells (OATP1B1*15; 5 µM remdesivir): moderately higher | Accumulation vs vector-transfected control cells (OATP1B1*15; 10 and 50 µM remdesivir): moderately higher
